Data: patent US9233946B2, “Sulfonamide compounds” (KANCERA AB, priority 2010, dated 2016)

Molecular target: PFKFB4 (Homo sapiens (Human), UniProt Q16877)
Experiment: PFKFB4 kinase activity, Method B (ADP-Glo Kinase Assay)
Assay type: biochemical
Description: The PFKFB3 (placenta form) and PFKFB4 were produced and purified to homogeneity from E. coli at Biovitrum and at Sprint Bioscience. All other reagents were purchased from commercial sources. Two independent methods have been used for determination of the kinase activity of PFKFB3 (Method A and Method B). Method B has been used for determination of the kinase activity of PFKFB4.
Method B: The kinase activity of the bi-functional enzyme is readily quantified based on the production of ADP and F-2,6-P2 from ATP and F6P. The ADP is detected with a kit, ADP-Glo™ Kinase Assay^(a-e), from Promega. The assay is a luminescent ADP detection assay that measures kinase activity by quantifying the amount of ADP produced during the kinase reaction. The assay is performed in two steps; first, after the kinase reaction, an equal volume of ADP-Glo™ Reagent is added to terminate the kinase reaction and deplete the remaining ATP. Second, the Kinase Detection Reagent is added to simultaneously convert ADP to ATP and allow the newly synthesized ATP to be measured using a luciferase/luciferine reaction. The light generated is measured using a luminescence counter (1450 MicroBeta TriLux).
The assay was performed in white 384-well microtiter plates (OptiPlate, 6007299, PerkinElmer) by consecutive additions of 0.1 μL of a test compound solution (serial diluted in DMSO from compound DMSO stock solution and dispensed by acoustic dispensing from UV-star 384-well plate 7360153, VWR), 5 μL of enzyme solution and 5 μL of a substrate (fructose-6-phosphate (F6P) and adenosine-5′-triphosphate (ATP)) containing solution. […] Four reference dose response curves, one of them being the QC compound, were included in row O1-2, P1-2, and serial diluted as the test compounds. The final concentrations of all reagents in a total assay volume of 10.1 μL per well were: • 50 mM Tris-HCl at pH 8.0 • 10 mM MgCl2 • 5 mM Na2HPO4 at pH 8.0 • 81.48 nM PFKFB3 or 145 nM PFKFB4 • 8 μM ATP • 100 μM F6P (acid treated and then neutralized to remove any contaminating F-2,6-P2; see Van Schaftingen, 1984) • 0.005% Tween-20 • 1 mM dithiothreitol (DTT) • A test compound at various concentrations or controls (final DMSO concentration 0.99%)
Enzyme, compounds and controls were pre-incubated at room temperature for 15 min before the addition of substrate solution. The enzymatic reaction was allowed to proceed for 20 min (PFKFB3) or 40 min (PFKFB4) at room temperature. The reaction was terminated by the addition of 10 μL of ADP-Glo™ Reagent to all wells and the plate was incubated for 40 min at room temperature. After addition of 20 μL Kinase Detection Reagent to all wells the plate was incubated for 30 min at room temperature, followed by measurement in 1450 MicroBeta TriLux. All plates were centrifuged after each addition (room temperature, short spin, 500 RPM, Megafuge 1.0 Heraeus Instruments).
The inhibitory potency or IC50 values of test compounds on the kinase activity of PFKFB3 or PFKFB4 were calculated using a four-parameter model (model 205) in XLfit (IDBS ActivityBase XE Runner).

PFKFB4, sequence (Q16877 whole entry): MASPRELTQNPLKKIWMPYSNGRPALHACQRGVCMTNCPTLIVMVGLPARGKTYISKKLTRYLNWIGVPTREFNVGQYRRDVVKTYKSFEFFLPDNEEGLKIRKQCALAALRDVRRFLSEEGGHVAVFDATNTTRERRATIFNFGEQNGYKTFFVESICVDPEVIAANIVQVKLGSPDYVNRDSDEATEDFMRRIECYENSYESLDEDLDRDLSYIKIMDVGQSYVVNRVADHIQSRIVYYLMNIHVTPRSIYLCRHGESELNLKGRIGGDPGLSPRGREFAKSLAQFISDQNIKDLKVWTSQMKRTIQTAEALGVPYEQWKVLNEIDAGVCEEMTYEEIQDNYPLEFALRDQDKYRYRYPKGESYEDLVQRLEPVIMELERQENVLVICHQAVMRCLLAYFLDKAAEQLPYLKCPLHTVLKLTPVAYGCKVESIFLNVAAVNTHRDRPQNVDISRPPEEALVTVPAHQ

IC50	SMILES
60 nM	Cc1c(S(=O)(=O)Nc2cccc(C(=O)O)c2)sc2ccc(C(C)C)cc12 [Example 5, 3-{[(5-Isopropyl-3-methyl-1-benzothien-2-yl)sulfonyl]amino}benzoic acid]
130 nM	Cc1c(S(=O)(=O)Nc2cccc(C(=O)O)c2)sc2ccc(Cl)cc12 [Example 38, 3-{[(5-Chloro-3-methyl-1-benzothien-2-yl)sulfonyl]amino}benzoic acid]
